# Measurements: paper PMC4842970, “Bioactivity Focus of α-Cyano-4-hydroxycinnamic acid (CHCA) Leads to Effective Multifunctional Aldose Reductase Inhibitors” (Scientific Reports, 2016)
# Assays:
# human ALR2 = molecular target: T1, human ALR2 (Homo sapiens, UniProt P15121); experiment: ALR2 inhibition (in vitro reduction of D,L-glyceraldehyde); assay type: biochemical; details: human ALR2, D,L-glyceraldehyde as substrate; read-out: IC50 (ALR2 inhibition)
# T1 construct: purchased WAKO Pure Chemical Industries, Ltd. (Japan); host or cells: baculovirus-insect cell expression system
# Procedure: Human ALR2 was purchased from WAKO Pure Chemical Industries, Ltd. (Japan), which was purified from the culture medium of baculovirus-insect cell expression system. […] ALR2 inhibition was determined spectrophotometrically according to the procedure described previously.
# [1] = ORACFL radical absorbance capacity assay
# Source text: With the CHCA scaffold, we hypothesized that 5a–j should have antioxidant activity. Therefore, a radical absorbance capacity assay (ORACFL)[41] was employed to assess their capacities. This method is based on the inhibition of peroxyl-radical-induced oxidation initiated by thermal decomposition of azo-compounds, in this case 2,2′-azo-bis (2-amidinopropane) dihydrochloride (AAPH). Trolox (6-hydroxy-2,5,7,8-tetramethylchroman-2-carboxylic acid) was used as a standard reference. Data is expressed as micromoles of Trolox equivalents (TE) per […] of sample (μmol TE/ml or U/ml).
# Antioxidant capacity was determined according to the procedure described previously.
# chick embryo = experiment: Chick embryo model of hyperglycemia: mortality, NTD rate, body weight; assay type: in vivo; details: glucose 0.4 mmol/egg
# Procedure: In order to evaluate further the potential of 5f as an agent to treat diseases caused by high glucose inside the system, a chick embryo model of treatment with high glucose was set up.
# Fertilized leghorn eggs were purchased from the Avian Farm of the South China Agriculture University (Guangzhou, China). Before the injection of glucose (Sigma–Aldrich, MO, USA), the eggs were incubated in a humidified incubator (Grumbach, Germany) at 37 °C with 60% humidity until the embryos reached the desired stage. […] Glucose was dissolved in 200 μL chicken saline and injected on EDD 1. Mortality, abnormality and body weight measurements were made on EDD 5. Embryos were removed from their eggs and weighed. The percent mortality was measured by counting the number of dead versus all embryos. The rate of NTD of the embryos was assessed by the number of NTD versus survival embryos.
# ALR2 = experiment: AR (ALR2) activity in glucose-treated embryos (chicken AR ELISA kit); assay type: in vivo; details: glucose-treated chick embryos, EDD 5, edaravone group (0.1 nM)
# Procedure: As expected, treatment of 5f decreased ALR2 activity in a dose-dependent manner. […] However, EDA, which is a clinical radical scavenger, was shown no effect on the inhibition of ALR2.
# Embryos on EDD 5 were homogenized with chicken saline and centrifuged (4 °C, 10000 rpm, 10 min). The supernatant was used for measuring AR activity in the sample. A chicken AR ELISA kit (Jianglai Biotechnology, China) were used for detection. The concentration of AR in the samples was then determined by comparing the OD of the samples to the standard curve. The sorbitol contents of the chick embryo were determined by a Sorbitol Colorimetric Assay Kit (BioVision, USA). In the assay, sorbitol is oxidized to fructose with the proportional development of intense color with an absorbance maximum at 560 nm.
# [2] = system: oxidative stress (ROS, MDA, ORAC); experiment: ROS generation, MDA and ORAC level in chick embryos; assay type: in vivo; details: glucose-treated chick embryos; for ORAC level (anti-oxidative capacity) of embryo: EDD 5
# Source text: It has been reported that hyperglycemia increased the production of ROS. Blocking the generation of ROS could at least partially prevent the possible damage of hyperglycemia. No doubt, oxidative stress will be induced in glucose treated embryos. This conclusion was confirmed by the determination of ROS and malondialdehyde (MDA) levels, and the anti-oxidation ability in chick embryos on EDD 5. […] However, treatment of 5f decreased both levels of ROS and MDA in a dose-dependent manner.
# In addition, the ORAC level is indicative of the anti-oxidative capacity.
# ROS generation ratios in the eyes of EDD 5 chick embryos were detected with 5 μmol 2′,7′-dichlorofluorescein-diacetate (DCFH-DA, Sigma-Aldrich). The peroxide content was determined by measuring thiobarbituric-acid-reactive substances (TBARS) with a commercial MDA kit (Nanjing Jiancheng Institute of Biotechnology, Nanjing, China). The procedures for the ORAC assay were modified from the previously described method. The automated ORAC assay was carried out on a decay of the fluorescein signal and determined with an excitation/emission filter pair of 485/527 nm in a GENios Lueifcrase microplate reader (TECAN) at 37 °C. Final results were calculated on the basis of the difference in the area under the fluorescein decay curve between the blank and each sample.
# HEK293 cells = experiment: Cytotoxicity, MTT growth inhibition; assay type: cell-based, human; details: 500 μM
# Procedure: In another aspect, the toxicity was evaluated by the growth inhibition of 5f against human embryonic kidney 293 (HEK293) cells. It was shown that 5f was nontoxic to HEK293 cells even at high concentration of 500 μM (Supplementary B of Fig. S2).
# HEK293 cells were purchased from Centre of Cells Resource, Shanghai Institute of Life Science, Chinese Academy of Sciences, P. R. China. HEK293 cells in the exponential phase were plated on a 96-well cell culture plate with 5 × 10^3 cells in each well supplemented with 100 U/ml of penicillin and 100 μg/ml of streptomycin, which were cultured in a humidified atmosphere of 95% and 5% CO2 at 37 °C for 24 h. The cells were adherent. […] 6 wells were set for each group. The wells without addition of the drug were set as controls. The cells in each of the wells were cultured for another 24 h. Then 15 μl of MTT (5 mg/mL) was added to each well. The plates were then incubated at 37 °C for 4 hours, then the supernatants were discarded. 150 μL of DMSO solutions were added to each of the wells and the solutions were mixed thoroughly. Then the plates were incubated at 37 °C for another 10 minutes. Each sample was mixed again and the resulting formazan was measured by its absorbance at 570 nm using a BIO-RAD680 plate reader (Thermo, USA). The experiments were repeated at least 3 times and compared with the control experiment. […]
# ALR1 = molecular target: T2, ALR1 (Gallus gallus, UniProt Q5ZK84); experiment: ALR1 activity in glucose-treated embryos (chicken ALR1 ELISA kit); assay type: in vivo; details: glucose-treated chick embryos, EDD 5, compared with the model group
# T2 construct: Embryos on EDD 5 were homogenized with chicken saline and centrifuged; from tissue; host or cells: EDD 5 chick (leghorn) embryo homogenate supernatant
# T2 sequence (Q5ZK84 1-327): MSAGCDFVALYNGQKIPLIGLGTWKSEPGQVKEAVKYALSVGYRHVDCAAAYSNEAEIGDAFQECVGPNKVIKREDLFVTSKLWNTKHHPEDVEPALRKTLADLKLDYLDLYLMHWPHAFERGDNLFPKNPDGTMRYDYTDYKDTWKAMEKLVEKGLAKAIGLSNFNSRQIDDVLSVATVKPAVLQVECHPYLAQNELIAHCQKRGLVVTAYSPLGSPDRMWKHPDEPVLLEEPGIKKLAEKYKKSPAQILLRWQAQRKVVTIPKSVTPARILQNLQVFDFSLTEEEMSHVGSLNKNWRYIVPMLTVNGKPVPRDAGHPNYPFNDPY
# Procedure: Embryos on EDD 5 were homogenized with chicken saline and centrifuged (4 °C, 10000 rpm, 10 min). The supernatant was used for measuring ALR1 activity in the sample. A chicken ALR1 ELISA kit (Jianglai Biotechnology, China) were used for detection. The concentration of ALR1 in the samples was then determined by comparing the OD of the samples to the standard curve.
# AR = system: AR; set-up: method as in PMID 22316239; details: read-out: IC50 (AR inhibition); cited from earlier work
compound,measurement,setting,value
"CC(=O)N[C@H](COCc1ccccc1)C(=O)NCCNC(=O)/C(C#N)=C/c1ccc(O)cc1 [Compound 5d, (R,E) – N - (2 - (2-acetamido-3-(benzyloxy)propanamido)ethyl)-2-cyano-3-(4-hydroxyphenyl)acrylamide]",IC50,human ALR2,404 ± 7 nM
same,ORAC,[1]; 3.125 μg/ml,38.3 ± 1.9 U/ml
same,ORAC,[1]; 6.25 μg/ml,35.4 ± 3.2 U/ml
same,ORAC,[1]; 12.5 μg/ml,33.3 ± 4.1 U/ml
same,melting point,,175 to 177 °C
"CC1=NN(c2ccccc2)C(=O)C1 [Edaravone, reference compound]",Body weight,"chick embryo; EDD 5, dose 0.1 nM",310.8 ± 11.6 mg
same,Death (/n),"chick embryo; EDD 5, dose 0.1 nM",20.0%
same,NTD (/survival),"chick embryo; EDD 5, dose 0.1 nM",18.8%
same,ALR2 activity in embryo,ALR2,no effect
same,ORAC level (anti-oxidative capacity) of embryo,[2],recovered
"CC(/C=C1\SC(=S)N(CC(=O)O)C1=O)=C\c1ccccc1 [Epalrestat, epalrestat, reference compound]",inhibition rate (growth inhibition),HEK293 cells,36.4%
same,Body weight,"chick embryo; EDD 5, dose 1 μM",300.1 ± 3.6 mg
same,Death (/n),"chick embryo; EDD 5, dose 1 μM",25.0%
same,NTD (/survival),"chick embryo; EDD 5, dose 1 μM",26.7%
same,ALR1 level in embryo,ALR1,no obvious change
same,ORAC level (anti-oxidative capacity) of embryo,[2],no effect
same,MDA level in embryo,"[2]; EDD 5, dose 1 μM",no effect
same,ROS level in embryo,"[2]; EDD 5, dose 1 μM",no effect
O=C(O)/C=C/c1ccc(O)cc1 [p-coumaric acid],IC50,AR,140 nM
